The values below come from ChEMBL document CHEMBL1201862, “PubChem BioAssay data set” (2004).

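How tested: cells in 96-well plates exposed to compound for 48 hours at five concentrations. GI50: concentration for 50% inhibition of growth.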 Activity calls are given as the source filed them. Cut-off read from the data, not from the text of the source: active = GI50 up to about 1.1 µM and inactive = higher.

Common to all, as to assay: NCI-60 cell line screen, 48 h
Assay [1] relates to A549.
Assay [2] concerns CCRF-CEM.
Assay [3] has as its system COLO 205.
In assay [4] the test system is DMS-114.
Assay [5] relates to EKVX.
In assay [6] the test system is HCT-116.
For assay [7], the system named is HCT-15.
Assay [8] relates to HOP-62.
Assay [9] deals with LOX IMVI.
Assay [10] deals with M14.
In assay [11] the test system is M19-MEL.
Assay [12] deals with MCF7.
Assay [13] relates to NCI-H226.
Assay [14] relates to NCI-H23.
Assay [15] relates to NCI-H460.
The subject of assay [16] is NCI-H522.
The test system of assay [17] is NCI/ADR-RES.
In assay [18] the test system is OVCAR-5.
The test system of assay [19] is SK-MEL-28.
For assay [20], the system named is T47D.

Regarding `COc1c(O)c2ccccc2c2cc(O)ccc12`, the GI50 was 8.65 µM (inactive) in assay [1]; 6.24 µM (inactive) in assay [2]; 16 µM (inactive) in [3]; 1.97 µM (inactive) in assay [4]; 18.1 µM (inactive) in assay [5]; 4.53 µM (inactive) in assay [6]. The GI50 is 6.34 µM in assay [7]; 10.6 µM (inactive) in assay [8]; 2 µM (inactive) in assay [9]; 3.64 µM (inactive) in assay [10]; 2.01 µM (inactive) in [11]; 2.39 µM (inactive) in assay [12]. For the same molecule, the GI50 in [13] is 13.6 µM (inactive); in assay [14], 2.86 µM (inactive); in assay [15], 7.69 µM (inactive); in [16], 5.4 µM (inactive); in assay [17], 6.98 µM (inactive); in assay [18], 13.4 µM (inactive). Also, the GI50 is 4.91 µM (inactive) in assay [19] and 13.5 µM (inactive) in assay [20].
As to `Cc1nsc2cc(Cl)n(C)c(=O)c12`, the GI50 in assay [1] is > 100 µM (inactive); in assay [2], > 100 µM (inactive); in assay [3] it was > 100 µM (inactive); in assay [4], > 100 µM (inactive); in assay [5] it was 50.4 µM (inactive); in [6] it was > 100 µM (inactive). The GI50 in [7] was > 100 µM; in assay [8] it was > 100 µM (inactive); in [9] it was > 100 µM (inactive); in assay [10], > 100 µM (inactive); in assay [11], > 100 µM (inactive); in assay [13], > 100 µM (inactive). Moreover, the GI50 is > 100 µM (inactive) in assay [14]; > 100 µM (inactive) in assay [15]; 24.8 µM (inactive) in assay [16]; > 100 µM (inactive) in [18]; > 100 µM (inactive) in assay [19].
